Test results reported in patent US20250064941A1, “SIGLEC LIGANDS, CONJUGATES, AND METHODS OF USE THEREOF” (Osprey Biopharmaceuticals, Inc., priority 2023, published 2025).

Columns and labels:
[1] = molecular target: T1, mouse Siglec-2-Fc-Avi (CD22) (Mus musculus, UniProt P35329); experiment: SPR binding affinity to mouse CD22; conditions: steady-state analysis
T1 construct: made in house
T1 sequence (P35329 22-708 limits assumed): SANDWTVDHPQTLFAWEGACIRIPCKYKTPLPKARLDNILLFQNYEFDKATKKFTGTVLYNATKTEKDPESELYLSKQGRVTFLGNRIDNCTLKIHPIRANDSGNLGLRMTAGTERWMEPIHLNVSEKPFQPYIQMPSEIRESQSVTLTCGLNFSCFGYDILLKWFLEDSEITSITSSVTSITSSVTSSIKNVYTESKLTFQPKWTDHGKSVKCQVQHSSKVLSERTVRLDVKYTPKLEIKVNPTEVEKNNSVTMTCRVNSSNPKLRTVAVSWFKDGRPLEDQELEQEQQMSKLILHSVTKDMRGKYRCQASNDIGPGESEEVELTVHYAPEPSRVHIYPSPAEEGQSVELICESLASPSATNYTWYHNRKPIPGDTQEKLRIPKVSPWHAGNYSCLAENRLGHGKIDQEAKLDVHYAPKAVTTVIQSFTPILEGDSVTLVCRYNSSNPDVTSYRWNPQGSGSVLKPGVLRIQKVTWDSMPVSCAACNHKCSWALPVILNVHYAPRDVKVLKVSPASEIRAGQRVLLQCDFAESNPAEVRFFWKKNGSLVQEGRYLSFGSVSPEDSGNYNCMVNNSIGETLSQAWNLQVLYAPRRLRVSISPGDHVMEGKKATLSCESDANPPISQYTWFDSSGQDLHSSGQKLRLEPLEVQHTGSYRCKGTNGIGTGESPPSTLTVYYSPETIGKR
Procedure, shortened: (§1)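 SialoExo pretreatment, 4 h 37° C.; biotinylated CD22 on SA chip, Biacore 8K. Buffer 10 mM HEPES, 150 mM NaCl, 0.05% Tween-20, pH 7.5, 1% DMSO. Dissociation 120 s; solvent-corrected; steady-state KD.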

[2] = molecular target: T2, human Siglec-2/CD22 protein (Homo sapiens, UniProt P20273); experiment: SPR binding affinity to human CD22; conditions: steady-state analysis
T2 construct: purchased Acro Biosystems SI2-H82E3
T2 sequence (P20273 20-847): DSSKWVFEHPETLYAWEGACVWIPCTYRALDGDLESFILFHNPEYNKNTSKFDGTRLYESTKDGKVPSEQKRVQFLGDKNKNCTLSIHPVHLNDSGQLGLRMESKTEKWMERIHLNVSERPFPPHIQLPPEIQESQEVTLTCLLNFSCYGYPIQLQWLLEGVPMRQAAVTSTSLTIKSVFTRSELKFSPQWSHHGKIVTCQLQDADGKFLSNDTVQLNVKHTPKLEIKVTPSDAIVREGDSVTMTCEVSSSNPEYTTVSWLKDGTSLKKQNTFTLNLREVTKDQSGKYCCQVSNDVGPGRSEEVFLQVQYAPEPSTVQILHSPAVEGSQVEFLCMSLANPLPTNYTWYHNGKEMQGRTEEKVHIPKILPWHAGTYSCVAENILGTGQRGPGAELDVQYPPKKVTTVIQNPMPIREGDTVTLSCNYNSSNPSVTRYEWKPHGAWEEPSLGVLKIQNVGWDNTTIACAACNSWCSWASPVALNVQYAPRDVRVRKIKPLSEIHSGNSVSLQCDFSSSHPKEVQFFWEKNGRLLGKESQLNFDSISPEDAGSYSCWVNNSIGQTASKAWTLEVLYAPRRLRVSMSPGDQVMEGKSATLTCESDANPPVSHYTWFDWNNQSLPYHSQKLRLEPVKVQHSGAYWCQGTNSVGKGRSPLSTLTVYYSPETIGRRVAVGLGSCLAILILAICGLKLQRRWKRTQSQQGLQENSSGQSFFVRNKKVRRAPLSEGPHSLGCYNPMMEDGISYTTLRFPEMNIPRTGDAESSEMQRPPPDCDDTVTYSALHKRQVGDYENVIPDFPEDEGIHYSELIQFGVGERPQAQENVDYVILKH
Procedure, shortened: as §1

[3] = molecular target: cynomolgus Siglec-2/CD22 (Macaca fascicularis, UniProt A0A2K5WCZ6); experiment: biochemical; type: binding; conditions: SPR, steady-state analysis; read-out: Affinity cyno CD22
cynomolgus Siglec-2/CD22, sequence (A0A2K5WCZ6 entry or part of it): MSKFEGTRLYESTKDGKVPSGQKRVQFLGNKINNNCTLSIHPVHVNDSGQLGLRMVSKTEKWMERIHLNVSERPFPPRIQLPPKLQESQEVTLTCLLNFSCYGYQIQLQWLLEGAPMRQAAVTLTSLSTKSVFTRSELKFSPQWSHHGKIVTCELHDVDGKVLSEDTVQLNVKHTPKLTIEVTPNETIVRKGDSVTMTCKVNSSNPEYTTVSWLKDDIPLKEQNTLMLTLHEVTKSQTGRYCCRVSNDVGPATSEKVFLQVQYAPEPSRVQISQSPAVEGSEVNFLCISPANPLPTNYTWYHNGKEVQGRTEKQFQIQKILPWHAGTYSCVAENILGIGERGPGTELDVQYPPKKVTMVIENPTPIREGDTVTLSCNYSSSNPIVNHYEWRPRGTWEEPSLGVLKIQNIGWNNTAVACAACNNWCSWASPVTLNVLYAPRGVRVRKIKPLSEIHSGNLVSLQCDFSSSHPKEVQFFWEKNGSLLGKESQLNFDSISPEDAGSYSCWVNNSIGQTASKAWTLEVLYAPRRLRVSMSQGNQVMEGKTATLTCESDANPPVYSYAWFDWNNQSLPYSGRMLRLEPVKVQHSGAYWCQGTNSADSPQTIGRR
Procedure, shortened: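 Compound binding measured by steady-state SPR analysis, 120 s dissociation, in HEPES-NaCl-Tween buffer pH 7.5 containing 1% DMSO, DMSO solvent-corrected. Surface: cyno CD22, sialic acids first stripped by SialoExo for 4 h at 37° C., then amine-coupled onto CM5.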

SMILES: C#CCCOCCOCCO[C@]1(C(=O)O)C[C@H](O)[C@@H](NC(=O)CO)[C@H]([C@H](O)[C@H](O)CNC(=O)Cc2ccc(-c3ccc(O)cc3)cc2)O1 [Compound 83, (2R,4S,5R,6R)-2-(2-(2-(but-3-yn-1-yloxy)ethoxy)ethoxy)-6-((1R,2R)-1,2-dihydroxy-3-(2-(4′-hydroxy-[1,1′-biphenyl]-4-yl)acetamido)propyl)-4-hydroxy-5-(2-hydroxyacetamido)tetrahydro-2H-pyran-2-carboxylic acid]
- Kd [1]: 1000 to 10000 nM
- Kd [2]: < 1000 nM
- Kd [3]: 1000 to 10000 nM

SMILES: C#CCOCCCCCCO[C@]1(C(=O)O)C[C@H](O)[C@@H](NC(=S)NC)[C@H]([C@H](O)[C@H](O)CNC(=O)Cc2ccc(Cl)cc2)O1 [Compound 84, (2R,4S,5R,6R)-6-((1R,2R)-3-(2-(4-chlorophenyl)acetamido)-1,2-dihydroxypropyl)-4-hydroxy-5-(3-methylthioureido)-2-((6-(prop-2-yn-1-yloxy)hexyl)oxy)tetrahydro-2H-pyran-2-carboxylic acid]
- Kd [1]: 1000 to 10000 nM
- Kd [2]: < 1000 nM
- Kd [3]: 1000 to 10000 nM

SMILES: C#CCOCCCCCCO[C@]1(C(=O)O)C[C@H](O)[C@@H](NC(=O)N(C)C)[C@H]([C@H](O)[C@H](O)CNC(=O)Cc2ccc(Cl)cc2)O1 [Compound 85, (2R,4S,5R,6R)-6-((1R,2R)-3-(2-(4-chlorophenyl)acetamido)-1,2-dihydroxypropyl)-5-(3,3-dimethylureido)-4-hydroxy-2-((6-(prop-2-yn-1-yloxy)hexyl)oxy)tetrahydro-2H-pyran-2-carboxylic acid]
- Kd [1]: 1000 to 10000 nM
- Kd [2]: < 1000 nM
- Kd [3]: < 1000 nM

SMILES: C#CCOCCCCCCO[C@]1(C(=O)O)C[C@H](O)[C@@H](NC(=O)CC2CC2)[C@H]([C@H](O)[C@H](O)CNC(=O)Cc2ccc(Cl)cc2)O1 [Compound 88, (2R,4S,5R,6R)-6-((1R,2R)-3-(2-(4-chlorophenyl)acetamido)-1,2-dihydroxypropyl)-5-(2-cyclopropylacetamido)-4-hydroxy-2-((6-(prop-2-yn-1-yloxy)hexyl)oxy)tetrahydro-2H-pyran-2-carboxylic acid]
- Kd [1]: > 10000 nM
- Kd [2]: 1000 to 10000 nM
- Kd [3]: 1000 to 10000 nM

SMILES: C#CCOCCCCCCO[C@]1(C(=O)O)C[C@H](O)[C@@H](NC(=O)NC2CC2)[C@H]([C@H](O)[C@H](O)CNC(=O)Cc2ccc(Cl)cc2)O1 [Compound 89, (2R,4S,5R,6R)-6-((1R,2R)-3-(2-(4-chlorophenyl)acetamido)-1,2-dihydroxypropyl)-5-(3-cyclopropylureido)-4-hydroxy-2-((6-(prop-2-yn-1-yloxy)hexyl)oxy)tetrahydro-2H-pyran-2-carboxylic acid]
- Kd [1]: 1000 to 10000 nM
- Kd [2]: 1000 to 10000 nM
- Kd [3]: 1000 to 10000 nM

SMILES: C#CCOCCCCCCO[C@]1(C(=O)O)C[C@H](O)[C@@H](NC(=O)C(F)(F)F)[C@H]([C@H](O)[C@H](O)CNC(=O)Cc2ccc(Cl)cc2)O1 [Compound 90, (2R,4S,5R,6R)-6-((1R,2R)-3-(2-(4-chlorophenyl)acetamido)-1,2-dihydroxypropyl)-4-hydroxy-2-((6-(prop-2-yn-1-yloxy)hexyl)oxy)-5-(2,2,2-trifluoroacetamido)tetrahydro-2H-pyran-2-carboxylic acid]
- Kd [1]: 1000 to 10000 nM
- Kd [2]: < 1000 nM
- Kd [3]: < 1000 nM

SMILES: C#CCOCCCCCCO[C@]1(C(=O)O)C[C@H](O)[C@@H](NC(=O)COc2ccccc2)[C@H]([C@H](O)[C@H](O)CNC(=O)Cc2ccc(Cl)cc2)O1 [Compound 91, (2R,4S,5R,6R)-6-((1R,2R)-3-(2-(4-chlorophenyl)acetamido)-1,2-dihydroxypropyl)-4-hydroxy-5-(2-phenoxyacetamido)-2-((6-(prop-2-yn-1-yloxy)hexyl)oxy)tetrahydro-2H-pyran-2-carboxylic acid]
- Kd [1]: > 10000 nM
- Kd [2]: 1000 to 10000 nM
- Kd [3]: < 1000 nM

SMILES: C#CCOCCCCCCO[C@]1(C(=O)O)C[C@H](O)[C@@H](NC(=O)Cc2ccccc2)[C@H]([C@H](O)[C@H](O)CNC(=O)Cc2ccc(Cl)cc2)O1 [Compound 93, (2R,4S,5R,6R)-6-((1R,2R)-3-(2-(4-chlorophenyl)acetamido)-1,2-dihydroxypropyl)-4-hydroxy-5-(2-phenylacetamido)-2-((6-(prop-2-yn-1-yloxy)hexyl)oxy)tetrahydro-2H-pyran-2-carboxylic acid]
- Kd [1]: > 10000 nM
- Kd [2]: 1000 to 10000 nM
- Kd [3]: > 10000 nM

SMILES: C#CCOCCCCCCO[C@]1(C(=O)O)C[C@H](O)[C@@H](NC(=O)NCC2CC2)[C@H]([C@H](O)[C@H](O)CNC(=O)Cc2ccc(Cl)cc2)O1 [Compound 94, (2R,4S,5R,6R)-6-((1R,2R)-3-(2-(4-chlorophenyl)acetamido)-1,2-dihydroxypropyl)-5-(3-(cyclopropylmethyl)ureido)-4-hydroxy-2-((6-(prop-2-yn-1-yloxy)hexyl)oxy)tetrahydro-2H-pyran-2-carboxylic acid]
- Kd [1]: 1000 to 10000 nM
- Kd [2]: 1000 to 10000 nM
- Kd [3]: 1000 to 10000 nM

SMILES: C#CCCCCNC(=O)CCCCCCO[C@]1(C(=O)O)C[C@H](O)[C@@H](NC(=O)CO)[C@H]([C@H](O)[C@H](O)CNC(=O)Cc2ccc(Cl)cc2)O1 [Compound 96, (2R,4S,5R,6R)-6-((1R,2R)-3-(2-(4-chlorophenyl)acetamido)-1,2-dihydroxypropyl)-2-((7-(hex-5-yn-1-ylamino)-7-oxoheptyl)oxy)-4-hydroxy-5-(2-hydroxyacetamido)tetrahydro-2H-pyran-2-carboxylic acid]
- Kd [1]: < 1000 nM
- Kd [2]: < 1000 nM
- Kd [3]: < 1000 nM

SMILES: O=C(O)CCCCCCCO[C@]1(C(=O)O)C[C@H](O)[C@@H](NC(=O)CO)[C@H]([C@H](O)[C@H](O)CNC(=O)Cc2ccc(Cl)cc2)O1 [Compound 97, (2R,4S,5R,6R)-2-((7-carboxyheptyl)oxy)-6-((1R,2R)-3-(2-(4-chlorophenyl)acetamido)-1,2-dihydroxypropyl)-4-hydroxy-5-(2-hydroxyacetamido)tetrahydro-2H-pyran-2-carboxylic acid]
- Kd [1]: < 1000 nM
- Kd [2]: < 1000 nM
- Kd [3]: < 1000 nM

SMILES: O=C(O)CCCCCCO[C@]1(C(=O)O)C[C@H](O)[C@@H](NC(=O)CO)[C@H]([C@H](O)[C@H](O)CNC(=O)Cc2ccc(Cl)cc2)O1 [Compound 98, (2R,4S,5R,6R)-2-((6-carboxyhexyl)oxy)-6-((1R,2R)-3-(2-(4-chlorophenyl)acetamido)-1,2-dihydroxypropyl)-4-hydroxy-5-(2-hydroxyacetamido)tetrahydro-2H-pyran-2-carboxylic acid]
- Kd [1]: 1000 to 10000 nM
- Kd [2]: < 1000 nM
- Kd [3]: < 1000 nM

SMILES: O=C(O)CCCCCCCCCCCCCCCO[C@]1(C(=O)O)C[C@H](O)[C@@H](NC(=O)CO)[C@H]([C@H](O)[C@H](O)CNC(=O)Cc2ccc(Cl)cc2)O1 [Compound 99, (2R,4S,5R,6R)-2-((15-carboxypentadecyl)oxy)-6-((1R,2R)-3-(2-(4-chlorophenyl)acetamido)-1,2-dihydroxypropyl)-4-hydroxy-5-(2-hydroxyacetamido)tetrahydro-2H-pyran-2-carboxylic acid]
- Kd [1]: < 1000 nM
- Kd [2]: < 1000 nM
- Kd [3]: < 1000 nM
